Test results published in ChEMBL document CHEMBL1201862, “PubChem BioAssay data set” (2004).
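Exposure lasted 48 hours, with cells grown in 96-well plates and compounds tested at five concentrations. GI50 is the concentration that inhibits growth by half.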 Activity calls are given as the source filed them. No stated cut-off is given here; in the data, active = GI50 up to about 1.1 µM and inactive = higher.

How the values were obtained:
Test in all cases: NCI-60 cell line screen, 48 h
DLD-1 = tested on: DLD-1
HOP-18 = tested on: HOP-18
KM-20L2 = tested on: KM-20L2
LXFL 529 = tested on: LXFL 529
M19-MEL = tested on: M19-MEL
RXF 631 = tested on: RXF 631
SNB-78 = tested on: SNB-78
XF498 = tested on: XF498
DMS-273 = tested on: DMS-273

Row | Structure (SMILES) | GI50 (DLD-1) | GI50 (HOP-18) | GI50 (KM-20L2) | GI50 (LXFL 529) | GI50 (M19-MEL) | GI50 (RXF 631) | GI50 (SNB-78) | GI50 (XF498) | GI50 (DMS-273)
1 | OCCSCC/C(=N\N=C(/CCSCCO)c1ccccc1)c1ccccc1 | > 100 µM (inactive) | > 100 µM (inactive) | 49.9 µM (inactive) | 82 µM (inactive) | > 100 µM (inactive) | 65.8 µM (inactive) | > 100 µM (inactive) | 69.2 µM (inactive) | –
2 | Cc1c2c(ccc3ccccc32)c[n+]2ccccc12 | 9.75 µM (inactive) | – | 12.6 µM (inactive) | 5.09 µM (inactive) | – | – | – | – | 12.7 µM (inactive)
3 | COc1cc2ccnc([C@@H](OC(=O)c3ccccc3)c3ccc(OC)c(OC)c3OC)c2cc1OC | 27.9 µM (inactive) | > 100 µM (inactive) | 32.3 µM (inactive) | 30.8 µM (inactive) | 73.6 µM (inactive) | 50 µM (inactive) | 50.5 µM (inactive) | – | > 10 µM (inactive)
4 | CCCCCCCCCCCC(=O)CC(=O)c1c(O)cccc1O | 17.7 µM (inactive) | 16.4 µM (inactive) | 20.5 µM (inactive) | 18.2 µM (inactive) | 18.3 µM (inactive) | – | 19.3 µM (inactive) | 18.5 µM (inactive) | 18.4 µM (inactive)
5 | O=C(O)C1CCC(=O)N1C(=O)C(Cl)c1ccccc1 (stereo not given) | > 100 µM (inactive) | > 100 µM (inactive) | > 100 µM (inactive) | > 100 µM (inactive) | > 100 µM (inactive) | > 100 µM (inactive) | > 100 µM (inactive) | > 100 µM (inactive) | > 100 µM (inactive)
6 | COc1cc(C(C)c2cc3c(cc2OCCN)OCO3)cc(OC)c1OC (stereo not given) | 36 µM (inactive) | – | 28.8 µM (inactive) | 75.5 µM (inactive) | 39.8 µM (inactive) | > 100 µM (inactive) | – | – | > 100 µM (inactive)
7 | CCCCCCCCCC[C@@H](O)[C@@H]1CC[C@H]([C@H]2CC[C@@H]([C@@H](O)CCCCCCCCCC[C@H]3CC(CC(C)=O)C(=O)O3)O2)O1 (stereo not given in full) | 16.6 µM (inactive) | – | 14.6 µM (inactive) | 3.3 µM (inactive) | 13.9 µM (inactive) | 8.91 µM (inactive) | 10.9 µM (inactive) | – | 10.3 µM (inactive)
8 | COC(=O)/C(C#N)=C1\CCC(O)N1 (stereo not given) | > 100 µM (inactive) | > 100 µM (inactive) | > 100 µM (inactive) | > 100 µM (inactive) | > 100 µM (inactive) | – | > 100 µM (inactive) | > 100 µM (inactive) | > 100 µM (inactive)
9 | CN(CCc1ccccn1)c1nc(=[N+](C)C)ss1 | > 100 µM (inactive) | > 100 µM (inactive) | > 100 µM (inactive) | 72.9 µM (inactive) | 78.5 µM (inactive) | > 100 µM (inactive) | > 100 µM (inactive) | > 100 µM (inactive) | > 100 µM (inactive)
10 | COc1ccc(C(=O)Nc2ccccc2C#N)cc1 | > 100 µM (inactive) | > 100 µM (inactive) | > 100 µM (inactive) | – | > 100 µM (inactive) | – | > 100 µM (inactive) | > 100 µM (inactive) | > 100 µM (inactive)
11 | N=C(N)Cn1cnc2ccccc21 | – | > 100 µM (inactive) | > 100 µM (inactive) | > 100 µM (inactive) | > 100 µM (inactive) | – | > 100 µM (inactive) | – | –
12 | Cc1nnc2n1N=C(CC(=O)c1ccc(O)cc1O)CN2N | > 100 µM (inactive) | – | > 100 µM (inactive) | > 100 µM (inactive) | 91.4 µM (inactive) | > 100 µM (inactive) | > 100 µM (inactive) | – | 40.4 µM (inactive)
13 | CCOC(=O)C1=C(N)N(c2ccccc2)/C(=C2\SC(=S)N(c3ccc(C)cc3)C2=O)S1 | – | 45.2 µM (inactive) | – | 59.2 µM (inactive) | > 100 µM (inactive) | – | – | – | –
14 | NC1CCCCC1.O=C(O)C(CP(=O)(O)O)=C(Cl)Cl | – | > 100 µM (inactive) | > 100 µM (inactive) | > 100 µM (inactive) | > 100 µM (inactive) | – | > 100 µM (inactive) | > 100 µM (inactive) | > 100 µM (inactive)
15 | Nc1ccc2n[se]nc2c1 | > 100 µM (inactive) | > 100 µM (inactive) | > 100 µM (inactive) | > 100 µM (inactive) | > 100 µM (inactive) | > 100 µM (inactive) | > 100 µM (inactive) | > 100 µM (inactive) | > 100 µM (inactive)
16 | CN(C)CCC[N+]1=Nc2cccc3cccc(c23)N1 | 17.5 µM (inactive) | > 100 µM (inactive) | 23.7 µM (inactive) | 49.8 µM (inactive) | 48.2 µM (inactive) | > 100 µM (inactive) | > 100 µM (inactive) | > 100 µM (inactive) | 18.8 µM (inactive)
17 | C/C=C(/C)C(=O)O[C@H]1[C@H](O)CC(c2ccc3c(c2O)C(=O)C2=C(O)C4(OC)C(=O)C(C(N)=O)=C(O)[C@H](CC(=O)c5ccccc5O)C4CC2[C@@]3(C)OC)O[C@@H]1C (stereo not given in full) | 0.01 µM (active) | 0.01 µM (active) | 0.01 µM (active) | 0.01 µM (active) | 0.01 µM (active) | – | – | – | 0.01 µM (active)
18 | CC(SC(=S)Nc1cccc(F)c1)C(=O)O (stereo not given) | – | – | 26.4 µM (inactive) | 17.9 µM (inactive) | – | – | 38.9 µM (inactive) | – | 11.8 µM (inactive)
19 | C=CCN1C(=O)C(=O)N(CC=C)C(=O)C1=O | > 100 µM (inactive) | – | > 100 µM (inactive) | > 100 µM (inactive) | > 100 µM (inactive) | – | > 100 µM (inactive) | > 100 µM (inactive) | > 100 µM (inactive)
20 | Cc1c(C(=O)C/C(=N\O)C(=O)Nc2cc(Cl)c(Cl)cc2Cl)[n+]([O-])c2ccccc2[n+]1[O-] | 22 µM (inactive) | 20.7 µM (inactive) | 15.9 µM (inactive) | 15 µM (inactive) | 2.2 µM (inactive) | – | 41.3 µM (inactive) | 25.9 µM (inactive) | 17.1 µM (inactive)
21 | CCNC(=O)/C(=C/c1ccc(OC)cc1)c1cc(OC)c(OC)c(OC)c1 | 14.7 µM (inactive) | > 100 µM (inactive) | 3.91 µM (inactive) | 24.2 µM (inactive) | 14.8 µM (inactive) | 32.5 µM (inactive) | 23.1 µM (inactive) | 17.3 µM (inactive) | 3.47 µM (inactive)
22 | N=c1c2ccccc2sc2nc3ccccc3n12 | > 100 µM (inactive) | > 100 µM (inactive) | – | > 100 µM (inactive) | > 100 µM (inactive) | – | > 100 µM (inactive) | 85.1 µM (inactive) | > 100 µM (inactive)
